Assay results as given in ChEMBL document CHEMBL1909046, “DrugMatrix in vitro pharmacology data”.

Key:
[1] = molecular target: T1, Alpha-1D adrenergic receptor (Homo sapiens, UniProt P25100); format: cell membranes, HEK293, Membrane; further: in other assays of this panel Not Active means under 50% inhibition at 10 µM
T1 sequence (P25100 whole entry): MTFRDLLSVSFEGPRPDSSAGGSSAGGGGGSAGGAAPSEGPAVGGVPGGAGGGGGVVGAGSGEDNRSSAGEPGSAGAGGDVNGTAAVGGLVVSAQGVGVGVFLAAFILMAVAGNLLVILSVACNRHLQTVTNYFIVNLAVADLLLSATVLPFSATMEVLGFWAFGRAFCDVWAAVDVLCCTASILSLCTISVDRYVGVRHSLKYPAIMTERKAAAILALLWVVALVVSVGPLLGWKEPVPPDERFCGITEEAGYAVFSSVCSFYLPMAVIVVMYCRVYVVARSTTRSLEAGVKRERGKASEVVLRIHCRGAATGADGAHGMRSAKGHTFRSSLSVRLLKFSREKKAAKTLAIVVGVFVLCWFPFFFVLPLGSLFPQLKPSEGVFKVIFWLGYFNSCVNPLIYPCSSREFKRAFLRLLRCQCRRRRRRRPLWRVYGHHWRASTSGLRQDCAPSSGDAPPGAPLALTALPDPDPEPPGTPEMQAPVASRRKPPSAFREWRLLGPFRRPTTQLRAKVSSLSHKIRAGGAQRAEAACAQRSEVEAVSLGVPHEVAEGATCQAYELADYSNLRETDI

Thromboxane-A synthase = molecular target: T2, Thromboxane-A synthase (Homo sapiens, UniProt P24557); assay: biochemical; format: tissue-based, Platelet; conditions: platelet;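 further: enzyme inhibition assay with PGH2 supplied as substrate; in other assays of this panel Not Active means under 50% inhibition at 10 µM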
T2 sequence (P24557 whole entry): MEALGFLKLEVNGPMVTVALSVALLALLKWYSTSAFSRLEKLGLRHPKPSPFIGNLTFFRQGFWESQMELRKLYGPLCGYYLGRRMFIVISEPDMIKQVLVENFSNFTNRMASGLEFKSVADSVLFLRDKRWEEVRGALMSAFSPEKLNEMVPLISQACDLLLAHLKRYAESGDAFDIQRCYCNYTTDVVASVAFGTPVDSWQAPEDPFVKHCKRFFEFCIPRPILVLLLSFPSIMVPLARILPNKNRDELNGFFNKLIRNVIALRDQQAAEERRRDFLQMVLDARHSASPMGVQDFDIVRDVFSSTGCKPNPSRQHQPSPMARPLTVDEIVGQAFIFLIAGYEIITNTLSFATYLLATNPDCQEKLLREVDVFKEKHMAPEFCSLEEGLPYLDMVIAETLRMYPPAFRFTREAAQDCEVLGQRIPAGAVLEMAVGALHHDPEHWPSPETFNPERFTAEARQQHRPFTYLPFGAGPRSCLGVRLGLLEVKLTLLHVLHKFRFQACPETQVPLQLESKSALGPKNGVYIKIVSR

[2] = molecular target: Epidermal growth factor receptor (Homo sapiens, UniProt P00533); assay: DRUGMATRIX: Protein Tyrosine Kinase, EGF Receptor enzyme inhibition (substrate: Poly(Glu:Tyr)); format: cell-based, Insect cells; conditions: Not Active = under 50% inhibition at 10 µM
Melanocortin receptor 3 = Melanocortin receptor 3 (Homo sapiens, UniProt P41968); format: cell membranes, HEK293, Membrane; conditions: hek293; further: in other assays of this panel Not Active means under 50% inhibition at 10 µM
[3] = molecular target: T3, Nitric oxide synthase, inducible (Mus musculus, UniProt P29477); parameters: species or system Escherichia coli;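 further: inhibition of iNOS enzyme activity measured with L-arginine as substrate; in other assays of this panel Not Active means under 50% inhibition at 10 µM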
T3 sequence (P29477 whole entry): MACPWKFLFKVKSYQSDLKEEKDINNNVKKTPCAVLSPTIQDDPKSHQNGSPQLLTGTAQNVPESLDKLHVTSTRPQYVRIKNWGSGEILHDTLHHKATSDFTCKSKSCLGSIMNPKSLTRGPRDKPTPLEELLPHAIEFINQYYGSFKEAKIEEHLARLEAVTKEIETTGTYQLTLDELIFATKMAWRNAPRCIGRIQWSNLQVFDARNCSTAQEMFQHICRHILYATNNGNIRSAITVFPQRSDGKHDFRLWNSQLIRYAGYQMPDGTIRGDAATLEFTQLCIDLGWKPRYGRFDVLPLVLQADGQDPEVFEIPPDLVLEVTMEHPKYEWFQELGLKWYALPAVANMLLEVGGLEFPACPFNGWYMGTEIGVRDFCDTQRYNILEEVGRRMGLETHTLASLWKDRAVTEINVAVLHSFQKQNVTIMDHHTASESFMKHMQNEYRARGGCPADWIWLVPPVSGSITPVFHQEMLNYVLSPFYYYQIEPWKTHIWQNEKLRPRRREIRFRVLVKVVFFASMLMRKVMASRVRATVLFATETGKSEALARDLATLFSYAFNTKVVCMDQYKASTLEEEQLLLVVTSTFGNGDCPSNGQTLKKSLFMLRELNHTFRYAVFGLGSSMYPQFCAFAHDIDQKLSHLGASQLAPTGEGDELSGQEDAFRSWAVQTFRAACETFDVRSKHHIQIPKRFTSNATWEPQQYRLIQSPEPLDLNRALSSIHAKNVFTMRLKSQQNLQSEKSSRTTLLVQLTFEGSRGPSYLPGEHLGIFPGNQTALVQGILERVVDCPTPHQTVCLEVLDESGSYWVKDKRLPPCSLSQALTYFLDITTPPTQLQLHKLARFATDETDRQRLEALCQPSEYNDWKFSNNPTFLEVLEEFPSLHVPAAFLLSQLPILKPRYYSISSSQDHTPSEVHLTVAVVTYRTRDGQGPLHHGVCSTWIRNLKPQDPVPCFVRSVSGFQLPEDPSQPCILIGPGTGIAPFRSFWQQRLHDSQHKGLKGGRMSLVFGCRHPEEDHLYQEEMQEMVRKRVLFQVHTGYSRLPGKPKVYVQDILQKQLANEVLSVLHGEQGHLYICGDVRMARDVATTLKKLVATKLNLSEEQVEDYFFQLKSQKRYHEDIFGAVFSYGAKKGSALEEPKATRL

[4] = molecular target: Sodium-dependent dopamine transporter (Homo sapiens, UniProt Q01959); assay: DRUGMATRIX: Dopamine Transporter radioligand binding (ligand: [125I] RTI-55); format: cell membranes, CHO-K1, Membrane; conditions: cho-k1; Not Active = under 50% inhibition at 10 µM
Sodium-dependent dopamine transporter, sequence (Q01959 whole entry): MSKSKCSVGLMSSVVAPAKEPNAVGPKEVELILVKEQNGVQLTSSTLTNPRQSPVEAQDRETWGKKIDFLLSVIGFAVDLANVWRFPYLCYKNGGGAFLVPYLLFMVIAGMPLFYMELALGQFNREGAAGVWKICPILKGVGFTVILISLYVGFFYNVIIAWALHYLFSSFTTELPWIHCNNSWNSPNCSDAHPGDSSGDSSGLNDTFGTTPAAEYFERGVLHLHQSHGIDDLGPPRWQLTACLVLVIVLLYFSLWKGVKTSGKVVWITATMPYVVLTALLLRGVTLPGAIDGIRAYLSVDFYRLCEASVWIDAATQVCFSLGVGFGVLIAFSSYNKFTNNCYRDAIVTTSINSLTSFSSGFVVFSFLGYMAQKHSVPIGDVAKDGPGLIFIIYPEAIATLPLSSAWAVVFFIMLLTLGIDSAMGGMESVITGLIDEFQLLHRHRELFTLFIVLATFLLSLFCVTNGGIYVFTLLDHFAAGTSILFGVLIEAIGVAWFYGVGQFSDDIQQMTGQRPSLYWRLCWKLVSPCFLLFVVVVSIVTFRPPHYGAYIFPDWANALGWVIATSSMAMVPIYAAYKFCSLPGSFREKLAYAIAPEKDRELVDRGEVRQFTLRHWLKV

Melanocortin receptor 3, sequence (P41968 whole entry): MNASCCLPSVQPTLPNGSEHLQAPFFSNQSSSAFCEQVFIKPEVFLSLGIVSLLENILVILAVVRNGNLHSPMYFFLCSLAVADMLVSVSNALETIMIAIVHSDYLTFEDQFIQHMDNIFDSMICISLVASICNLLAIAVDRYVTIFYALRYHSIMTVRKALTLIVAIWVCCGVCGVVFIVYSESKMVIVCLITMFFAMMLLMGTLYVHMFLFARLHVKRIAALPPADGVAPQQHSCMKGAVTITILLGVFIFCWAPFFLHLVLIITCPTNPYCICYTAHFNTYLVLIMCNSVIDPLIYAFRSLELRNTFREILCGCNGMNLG

Row | Compound | IC50 ([1]; hek293) | IC50 (Thromboxane-A synthase) | IC50 ([2]; insect cells) | IC50 (Melanocortin receptor 3) | IC50 [3] | IC50 [4] | IC50 ([1]; read-out: IC50) [nM] | Ki ([1]; read-out: Ki) [nM] | IC50 ([2]; read-out: IC50) [nM] | Ki ([1]; hek293) | Ki (Thromboxane-A synthase) | Ki ([2]; insect cells) | Ki (Melanocortin receptor 3) | Ki [3] | Ki [4]
1 | CC[C@@H](C(=O)[C@@H](C)[C@@H](O)[C@H](C)[C@@H]1O[C@@H]([C@@H](CC)C(=O)O)CC[C@@H]1C)[C@H]1O[C@]2(C=C[C@@H](O)[C@]3(CC[C@@](C)([C@H]4CC[C@](O)(CC)[C@H](C)O4)O3)O2)[C@H](C)C[C@@H]1C [SALINOMYCIN] | Not Active | Not Active | Not Active | Not Active | Not Active | Not Active | – | – | – | – | – | – | – | – | –
2 | O=C(Oc1ccccc1C(=O)O)c1ccccc1O [SALSALATE] | Not Active | Not Active | Not Active | Not Active | Not Active | Not Active | – | – | – | – | – | – | – | – | –
3 | O=C(O)c1cn(-c2ccc(F)cc2)c2cc(N3CCNCC3)c(F)cc2c1=O [SARAFLOXACIN] | Not Active | Not Active | Not Active | Not Active | Not Active | Not Active | – | – | – | – | – | – | – | – | –
4 | CC(C)NCC(O)c1ccc(NS(C)(=O)=O)cc1 (configuration not stated) [SOTALOL] | Not Active | Not Active | Not Active | Not Active | Not Active | Not Active | – | – | – | – | – | – | – | – | –
5 | O.O.O.O.O.O.[Cl-].[Cl-].[Sr+2] [STRONTIUM CHLORIDE HEXAHYDRATE] | Not Active | Not Active | Not Active | Not Active | Not Active | Not Active | – | – | – | – | – | – | – | – | –
6 | O=C1C(CC[S+]([O-])c2ccccc2)C(=O)N(c2ccccc2)N1c1ccccc1 (configuration not stated) [SULFINPYRAZONE] | Not Active | Not Active | Not Active | Not Active | Not Active | Not Active | – | – | – | – | – | – | – | – | –
7 | NC(=O)N1C(=O)/C(=C(\O)c2cccs2)c2cc(Cl)ccc21 [TENIDAP] | Not Active | Not Active | Not Active | Not Active | Not Active | Not Active | – | – | – | – | – | – | – | – | –
8 | COc1cc2nc(N3CCN(C(=O)C4CCCO4)CC3)nc(N)c2cc1OC (configuration not stated) [TERAZOSIN] | – | Not Active | Not Active | Not Active | Not Active | Not Active | 17 | 8.36 | – | – | – | – | – | – | –
9 | CN(C/C=C/C#CC(C)(C)C)Cc1cccc2ccccc12 [TERBINAFINE] | Not Active | Not Active | Not Active | Not Active | Not Active | Not Active | – | – | – | – | – | – | – | – | –
10 | CCCCNc1ccc(C(=O)OCCN(C)C)cc1 [TETRACAINE] | Not Active | Not Active | Not Active | Not Active | Not Active | Not Active | – | – | – | – | – | – | – | – | –
11 | Cn1c(=O)c2nc[nH]c2n(C)c1=O.O [THEOPHYLLINE] | Not Active | Not Active | Not Active | Not Active | Not Active | Not Active | – | – | – | – | – | – | – | – | –
12 | CS(=O)(=O)c1ccc([C@@H](O)[C@@H](CO)NC(=O)C(Cl)Cl)cc1 [THIAMPHENICOL] | Not Active | Not Active | Not Active | Not Active | Not Active | Not Active | – | – | – | – | – | – | – | – | –
13 | CCN(CC)CCNC(=O)c1cc(S(C)(=O)=O)ccc1OC [TIAPRIDE] | Not Active | Not Active | Not Active | Not Active | Not Active | Not Active | – | – | – | – | – | – | – | – | –
14 | Clc1ccccc1CN1CCc2sccc2C1 [TICLOPIDINE] | Not Active | Not Active | Not Active | Not Active | Not Active | Not Active | – | – | – | – | – | – | – | – | –
15 | NC1CCN(c2nc3c(cc2F)c(=O)c(C(=O)O)cn3-c2ccc(F)cc2F)C1 (configuration not stated) [TOSUFLOXACIN] | Not Active | Not Active | Not Active | Not Active | Not Active | Not Active | – | – | – | – | – | – | – | – | –
16 | O=C(Nc1ccc(Br)cc1)c1cc(Br)cc(Br)c1O [TRIBROMSALAN] | Not Active | Not Active | – | Not Active | Not Active | Not Active | – | – | 2990 | – | – | – | – | – | –
17 | CC(c1cc2ccccc2s1)N(O)C(N)=O (configuration not stated) [ZILEUTON] | Not Active | Not Active | Not Active | Not Active | Not Active | Not Active | – | – | – | – | – | – | – | – | –
18 | MANGANESE CHLORIDE ANHYDROUS | Not Active | Not Active | Not Active | Not Active | Not Active | Not Active | – | – | – | Not Active | Not Active | Not Active | Not Active | Not Active | Not Active
19 | SODIUM ORTHOVANAD | Not Active | Not Active | Not Active | Not Active | Not Active | Not Active | – | – | – | Not Active | Not Active | Not Active | Not Active | Not Active | Not Active
